Assay results: patent US20030165854A1, “Marker genes responding to treatment with toxins” (priority 2000, published 2003)
Like-named read-outs stand apart in the source and are kept apart here.

How the values were obtained:
P450 LA-omega 4A3 = test: Gene expression (fold change) of known genes in toxin-treated rat liver, cDNA library transcript imaging; details: clofibrate-treated rat liver, vs untreated liver
P450 3A2 = test: as above; format: in vivo; details: clofibrate-treated rat liver, vs untreated liver
[1] = test system: rat liver cDNAs SEQ ID NOs: 1-61; format: in vivo, Han/Wistar rat; details: Strain HW
[2] = test system: rat liver cDNAs SEQ ID NOs: 62-202; test: Abundance of cDNA clones in toxin-treated rat liver cDNA libraries (transcript imaging), Sprague-Dawley; format: in vivo; details: Strain SD
Description: Columns 1 and 2 show the SEQ ID NO and Clone ID of the rat cDNA clone, respectively.
Abundance of a clone was determined by counting the number of clones present in a master cluster.
Abundance of a particular cDNA in the library profile was determined by summing the total number of copies of the clones present in the master cluster in that library.

P450 4A = details: clofibrate-treated rat liver, vs untreated liver

SMILES: CCOC(=O)C(C)(C)Oc1ccc(Cl)cc1 [clofibrate]
- Gene expression (fold change) P450 LA-omega 4A3 (P450 LA-omega 4A3; 12 hours): 14.8 fold change
- Gene expression (fold change) P450 LA-omega 4A3 (P450 LA-omega 4A3; 24 hours): 26.6 fold change
- Gene expression (fold change) P450 LA-omega 4A3 (P450 LA-omega 4A3; 3 days): 1.1 fold change
- Gene expression (fold change) P450 LA-omega 4A3 (P450 LA-omega 4A3; 7 days): 0.5 fold change
- Gene expression (fold change) P450 LA-omega 4A3 (P450 LA-omega 4A3; 28 days): 0.47 fold change
- Gene expression (fold change) P450 3A2 (P450 3A2; 12 hours): 0.14 fold change
- Gene expression (fold change) P450 3A2 (P450 3A2; 24 hours): 1.2 fold change
- Gene expression (fold change) P450 3A2 (P450 3A2; 3 days): 0.63 fold change
- Gene expression (fold change) P450 3A2 (P450 3A2; 7 days): 0.50 fold change
- Gene expression (fold change) P450 3A2 (P450 3A2; 28 days): 0.45 fold change
- Maximum Abundance, SEQ ID NO 9, Clone ID 700308908 [1]: 6
- Maximum Abundance, SEQ ID NO 11, Clone ID 700131403 [1]: 4
- Maximum Abundance, SEQ ID NO 10, Clone ID 700139239 ([1]; Sex M): 4
- Maximum Abundance, SEQ ID NO 110, Clone ID 700192259 [2]: 5
- Maximum Abundance, SEQ ID NO 111, Clone ID 700269330 [2]: 4
- Maximum Abundance, SEQ ID NO 112, Clone ID 701317696 [2]: 5
- Maximum Abundance, SEQ ID NO 163, Clone ID 700025278 [2]: 4
- Maximum Abundance, SEQ ID NO 164, Clone ID 700122008 [2]: 6
- Maximum Abundance, SEQ ID NO 165, Clone ID 700136662 [2]: 3
- Maximum Abundance, SEQ ID NO 166, Clone ID 700144043 [2]: 4
- Maximum Abundance, SEQ ID NO 167, Clone ID 700177423 [2]: 3
- Maximum Abundance, SEQ ID NO 168, Clone ID 700247621 [2]: 4
- Maximum Abundance, SEQ ID NO 169, Clone ID 700251379 [2]: 3
- Maximum Abundance, SEQ ID NO 170, Clone ID 700272988 [2]: 5
- Maximum Abundance, SEQ ID NO 171, Clone ID 700306859 [2]: 3
- Maximum Abundance, SEQ ID NO 172, Clone ID 700307013 [2]: 3
- Maximum Abundance, SEQ ID NO 173, Clone ID 700323707 [2]: 4
- Maximum Abundance, SEQ ID NO 174, Clone ID 700513589 [2]: 4
- Maximum Abundance, SEQ ID NO 175, Clone ID 700538641 [2]: 3
- Maximum Abundance, SEQ ID NO 176, Clone ID 700592657 [2]: 3
- Maximum Abundance, SEQ ID NO 177, Clone ID 701190918 [2]: 3
- Maximum Abundance, SEQ ID NO 178, Clone ID 701313456 [2]: 3
- Maximum Abundance, SEQ ID NO 179, Clone ID 701397319 [2]: 3
- Maximum Abundance, SEQ ID NO 180, Clone ID 701429135 [2]: 6
- Maximum Abundance, SEQ ID NO 181, Clone ID 701429654 [2]: 3
- Maximum Abundance, SEQ ID NO 182, Clone ID 701458841 [2]: 3
- Maximum Abundance, SEQ ID NO 183, Clone ID 701470083 [2]: 3
- Maximum Abundance, SEQ ID NO 184, Clone ID 701562608 [2]: 3
- Maximum Abundance, SEQ ID NO 185, Clone ID 701884534 [2]: 5
- Maximum Abundance, SEQ ID NO 186, Clone ID 700068662 [2]: 6
- Maximum Abundance, SEQ ID NO 187, Clone ID 700933309 [2]: 5
- Maximum Abundance, SEQ ID NO 201, Clone ID 700062503 [2]: 3
- Maximum Abundance, SEQ ID NO 113, Clone ID 700230724 ([2]; Sex F): 4
- Maximum Abundance, SEQ ID NO 114, Clone ID 700307025 ([2]; Sex F): 4
- Maximum Abundance, SEQ ID NO 115, Clone ID 700361295 ([2]; Sex F): 3
- Maximum Abundance, SEQ ID NO 116, Clone ID 700420930 ([2]; Sex F): 3
- Maximum Abundance, SEQ ID NO 117, Clone ID 700526706 ([2]; Sex F): 3
- Maximum Abundance, SEQ ID NO 118, Clone ID 700635732 ([2]; Sex F): 3
- Maximum Abundance, SEQ ID NO 119, Clone ID 700824178 ([2]; Sex F): 3
- Maximum Abundance, SEQ ID NO 120, Clone ID 701396706 ([2]; Sex F): 4
- Maximum Abundance, SEQ ID NO 121, Clone ID 701475987 ([2]; Sex F): 3
- Maximum Abundance, SEQ ID NO 122, Clone ID 701621131 ([2]; Sex F): 3
- Maximum Abundance, SEQ ID NO 123, Clone ID 701879551 ([2]; Sex F): 3
- Maximum Abundance, SEQ ID NO 124, Clone ID 701883446 ([2]; Sex F): 3
- Maximum Abundance, SEQ ID NO 125, Clone ID 701883859 ([2]; Sex F): 3
- Maximum Abundance, SEQ ID NO 188, Clone ID 700024288 ([2]; Sex F): 2
- Maximum Abundance, SEQ ID NO 189, Clone ID 700064545 ([2]; Sex F): 3
- Maximum Abundance, SEQ ID NO 190, Clone ID 700066933 ([2]; Sex F): 2
- Maximum Abundance, SEQ ID NO 191, Clone ID 700146747 ([2]; Sex F): 3
- Maximum Abundance, SEQ ID NO 192, Clone ID 700589657 ([2]; Sex F): 3
- Maximum Abundance, SEQ ID NO 193, Clone ID 700858043 ([2]; Sex F): 1
- Maximum Abundance, SEQ ID NO 109, Clone ID 700250903 ([2]; Sex M): 11
- Maximum Abundance, SEQ ID NO 126, Clone ID 700122019 ([2]; Sex M): 4
- Maximum Abundance, SEQ ID NO 127, Clone ID 700276321 ([2]; Sex M): 4
- Maximum Abundance, SEQ ID NO 128, Clone ID 700323126 ([2]; Sex M): 3
- Maximum Abundance, SEQ ID NO 129, Clone ID 700324604 ([2]; Sex M): 3
- Maximum Abundance, SEQ ID NO 130, Clone ID 700363120 ([2]; Sex M): 3
- Maximum Abundance, SEQ ID NO 131, Clone ID 700364810 ([2]; Sex M): 3
- Maximum Abundance, SEQ ID NO 132, Clone ID 700510701 ([2]; Sex M): 4
- Maximum Abundance, SEQ ID NO 133, Clone ID 700810877 ([2]; Sex M): 5
- Maximum Abundance, SEQ ID NO 134, Clone ID 700928985 ([2]; Sex M): 6
- Maximum Abundance, SEQ ID NO 135, Clone ID 700931410 ([2]; Sex M): 4
- Maximum Abundance, SEQ ID NO 136, Clone ID 701093657 ([2]; Sex M): 4
- Maximum Abundance, SEQ ID NO 137, Clone ID 701259518 ([2]; Sex M): 3
- Maximum Abundance, SEQ ID NO 138, Clone ID 701264516 ([2]; Sex M): 4
- Maximum Abundance, SEQ ID NO 139, Clone ID 701341715 ([2]; Sex M): 4
- Maximum Abundance, SEQ ID NO 140, Clone ID 701434939 ([2]; Sex M): 4
- Maximum Abundance, SEQ ID NO 141, Clone ID 701460429 ([2]; Sex M): 3
- Maximum Abundance, SEQ ID NO 142, Clone ID 701463285 ([2]; Sex M): 4
- Maximum Abundance, SEQ ID NO 143, Clone ID 701605992 ([2]; Sex M): 4
- Maximum Abundance, SEQ ID NO 144, Clone ID 701737185 ([2]; Sex M): 3
- Maximum Abundance, SEQ ID NO 145, Clone ID 701737221 ([2]; Sex M): 4
- Maximum Abundance, SEQ ID NO 146, Clone ID 701920170 ([2]; Sex M): 3
- Maximum Abundance, SEQ ID NO 147, Clone ID 701922204 ([2]; Sex M): 3
- Maximum Abundance, SEQ ID NO 148, Clone ID 701922375 ([2]; Sex M): 4
- Maximum Abundance, SEQ ID NO 149, Clone ID 701922439 ([2]; Sex M): 4
- Maximum Abundance, SEQ ID NO 150, Clone ID 701922513 ([2]; Sex M): 4
- Maximum Abundance, SEQ ID NO 151, Clone ID 701922576 ([2]; Sex M): 4
- Maximum Abundance, SEQ ID NO 152, Clone ID 701922583 ([2]; Sex M): 3
- Maximum Abundance, SEQ ID NO 153, Clone ID 701922711 ([2]; Sex M): 3
- Maximum Abundance, SEQ ID NO 154, Clone ID 701922744 ([2]; Sex M): 4
- Maximum Abundance, SEQ ID NO 155, Clone ID 701922971 ([2]; Sex M): 3
- Maximum Abundance, SEQ ID NO 156, Clone ID 701923019 ([2]; Sex M): 5
- Maximum Abundance, SEQ ID NO 157, Clone ID 701923022 ([2]; Sex M): 3
- Maximum Abundance, SEQ ID NO 158, Clone ID 701923218 ([2]; Sex M): 4
- Maximum Abundance, SEQ ID NO 159, Clone ID 701923240 ([2]; Sex M): 4
- Maximum Abundance, SEQ ID NO 160, Clone ID 701923241 ([2]; Sex M): 3
- Maximum Abundance, SEQ ID NO 161, Clone ID 701923330 ([2]; Sex M): 3
- Maximum Abundance, SEQ ID NO 162, Clone ID 701925484 ([2]; Sex M): 4
- Maximum Abundance, SEQ ID NO 194, Clone ID 700060595 ([2]; Sex M): 3
- Maximum Abundance, SEQ ID NO 195, Clone ID 700061212 ([2]; Sex M): 3
- Maximum Abundance, SEQ ID NO 196, Clone ID 700062747 ([2]; Sex M): 2
- Maximum Abundance, SEQ ID NO 197, Clone ID 700124248 ([2]; Sex M): 3
- Maximum Abundance, SEQ ID NO 198, Clone ID 700252787 ([2]; Sex M): 3
- Maximum Abundance, SEQ ID NO 199, Clone ID 700272719 ([2]; Sex M): 3
- Maximum Abundance, SEQ ID NO 200, Clone ID 700282789 ([2]; Sex M): 3
- Gene expression (fold change) P450 4A (P450 4A; 12 hours): 7.0 fold change
- Gene expression (fold change) P450 4A (P450 4A; 24 hours): 16.6 fold change
- Gene expression (fold change) P450 4A (P450 4A; 3 days): 1.4 fold change
- Gene expression (fold change) P450 4A (P450 4A; 7 days): 0.5 fold change
- Gene expression (fold change) P450 4A (P450 4A; 28 days): 1.3 fold change
